In patent US20140031296A1, “NEW SYNTHETIC PEPTIDES AND THEIR USE” (PERGAMUM AB, priority 2011, published 2014):
“Also recorded” adds a separate entry of the source.

Columns and labels:
[1] = system: S. aureus; assay: Antimicrobial effect in infected wounds, ex vivo model on pig skin; settings: S. aureus in PBS/serum (50/50), peptide in H2O 0.1, 0.5 and 2 mg/ml, single administration, 4 hours
Description: FIG. 5. Dose response effect of, peptide 232 (SEQ ID NO 78)(A) and peptide 220 (SEQ ID NO 67)(B) on bacterial colonization of infected wounds in pig skin. […] Results are presented as relative bacterial survival (%) compared to control group±SEM (n=10 wounds). Statistical significance was estimated by Student's t test. *=p<0.05, **=p<0.01, ***=p<0.001.
The antimicrobial effects of the peptide 232 (SEQ ID NO: 78), and the peptide 220 (SEQ ID NO:67) were investigated in an ex vivo model on pig skin. The wounds were inoculated with S. aureus in the presence of PBS/Serum 50/50. Two hours after inoculation the wounds were treated with a single administration of the peptide or placebo (H2O). Four hours after the treatment bacteria were harvested and viable counts of each wound were determined.

[2] = system: P. aeruginosa (ATCC 15442); assay: MMC99 assay, P. aeruginosa; format: cell-based
Method: (§1) The antimicrobial effects of the peptides 232 (SEQ ID NO: 78), and 220 (SEQ ID NO:67) were analysed by MMC99 (minimal microbicidal concentration) assay against S. aureus (CCUG 1800), MRSA (CCUG 41879), P. aeruginosa (ATCC 15442), E. coli (CCUG 31246), S. pyogenes (CCUG 4207), P. acnes (CCUG 1794T), S. epidermidis (ATCC12228), K. pneumoniae (ATCC 13883), A. baumannii (ATCC 19606), and C. albicans (ATCC 64549). The peptides were purchased from Biopeptide Company (San Diego, Calif., USA) and Bachem AG (Bubendorf, Switzerland) and results are presented in Table 8A and 8B respectively.
(§2) Peptides were serially diluted in two different assay medium, 1% BHI medium (brain-heart infusion medium) or 50% heat inactivated simulated wound fluid (SWF), and thereafter incubated with the microorganisms for 2 hours. Drops of the suspension were placed on blood agar plates. The MMC99 values, i.e. the lowest peptide concentration needed to achieve a 99% reduction of viable microorganisms, were recorded. As presented in Table 8, all the peptides have the ability to kill microorganisms frequently appearing in infections.

[3] = system: MRSA (CCUG 41879); assay: MMC99 assay, MRSA; format: cell-based
Method: as §1, §2

[4] = system: TNF-α production in LPS stimulated THP-1 cells; assay: Inhibition of TNF-α production in LPS stimulated THP-1 cells (ELISA); format: cell-based, human; settings: screen 2, mean relative secretion, basal = 0%; for TNF-α at 4 μM peptide / TNF-α at 10 μM peptide: stimulated = 100%; for TNF-α at 40 μM peptide: LPS-stimulated level without peptide = 100%
Method: (§3) After 6 hours of incubation at +37° C., 5% CO2 and in a humid atmosphere, the cell supernatants were collected, centrifuged and kept frozen in −20° C. until analyzed for TNF-α content by ELISA (R&D Systems, Minneapolis, Minn., USA). The results are presented as mean relative secretion (%), with stimulated TNF-α level without peptide added set to 100% and basal secretion set to 0% (Table 2).
as §3, with “incubation,” for “incubation at +37° C., 5% CO2 and in a humid atmosphere,”, “centrifuged,” for “centrifuged”, “5).” for “2).”

[5] = system: A. baumannii (ATCC 19606); assay: MMC99 assay, A. baumannii; format: cell-based
Method: as §1, §2

[6] = system: S. epidermidis (ATCC12228); assay: MMC99 assay, S. epidermidis; format: cell-based
Method: as §1, §2

[7] = system: K. pneumoniae (ATCC 13883); assay: MMC99 assay, K. pneumoniae; format: cell-based
Method: as §1, §2

[8] = system: C. albicans (ATCC 64549); assay: MMC99 assay, C. albicans; format: cell-based
Method: as §1, §2

Sequence	bacterial colonization of infected wounds in pig skin (bacterial counts vs control) [1]	MMC99 ([2]; 1% BHI) [µg/mL]	MMC99 ([2]; 50% SWF) [µg/mL]	MMC99 ([3]; 1% BHI) [µg/mL]	MMC99 ([3]; 50% SWF) [µg/mL]	TNF-α at 4 μM peptide [4] [%]	TNF-α at 10 μM peptide [4] [%]	TNF-α at 40 μM peptide [4] [%]	MMC99 ([5]; 1% BHI) [µg/mL]	MMC99 ([5]; 50% SWF) [µg/mL]	MMC99 ([6]; 1% BHI) [µg/mL]	MMC99 ([6]; 50% SWF) [µg/mL]	MMC99 ([7]; 1% BHI) [µg/mL]	MMC99 ([7]; 50% SWF) [µg/mL]	MMC99 ([8]; 1% BHI) [µg/mL]	MMC99 ([8]; 50% SWF) [µg/mL]
QSLARKLFQWLRNLRKVA [Peptide 220]	significant reduction in bacterial counts; also recorded: highly effective anti-infectious agents when applied locally	7	>200	6	200	70.8	37.0	11.6								
RRLWRRWMRKVL [Peptide 232]	significant reduction in bacterial counts; also recorded: highly effective anti-infectious agents when applied locally	5	>176	6	100	96.9	66.6	33.2	3	200	3	50	6	>200	3	50
